Data as given in patent publication US20240300945A1, “CLY SERIES COMPOUND, PREPARATION METHOD THEREFOR AND USE THEREOF IN PREPARATION OF DRUGS” (NANJING WELLBEST PHARMACEUTICAL CO., LTD, priority 2021, published 2024).

System: acute GVHD mice
Assay: Mouse model of acute graft-versus-host disease
Assay type: in vivo, BALB/c mice
Conditions: 5 mg/kg/d intravenously; for pathological changes of liver: 2 weeks after transplantation, hematoxylin-eosin; for clinical symptom score (GVHD): 11th day after transplantation, acute GVHD group 7.48±0.77; for survival rate of mice: Kaplan-Meier, three weeks after transplantation, acute GVHD group 12.13%
Protocol: Preparation of bone marrow cells: the donor mice were sacrificed by cervical dislocation, soaked in 75% ethanol for 5 minutes, and the two femurs and tibia of the mice were taken out under sterile conditions in the ultra-clean table, and placed in RPMI1640 medium containing 2% fetal bovine serum. Rinsed the bone marrow cavity with RPMI1640 culture medium, took out the bone marrow cells, blew them into the bone marrow suspension with sterile washing tube, filtered them with a 200 mesh filter, centrifuged for 10 min at 1500 r/min, collected the cell precipitates, and added physiological saline for resuspension. In addition, took a small amount of cell suspension and counted the number of nucleated cells after removing the red blood cells from the red blood cell lysate. And adjusted the concentration of nucleated cells in bone marrow suspension to 5×1010 L-1.
Preparation of spleen mononuclear cells: cut the spleen envelope aseptically, put it on a 200-mesh filter screen, soaked it in RPMI1640 medium containing 2% fetal bovine serum by volume, gently grinded the spleen with the handle of a sterile syringe, washed the filter screen several times with the culture medium, collected the filtered spleen cell suspension, centrifuged it at 1500 r/min for 10 min, and collected the spleen cell precipitation. After PBS resuspension, it was blown into a single cell suspension, gently placed on the upper layer of mouse spleen lymphocyte separation solution, centrifuged at 1800 r/min for 20 min, and white membrane cells were collected. PBS was washed twice. After cell count, the cell density was adjusted to 5×1010 L-1, and put in a 4° C. refrigerator for use.
C57BL/6 mice were used as bone marrow transplantation donors and BABL/c mice as recipients. BABL/c mice were randomly divided into the control group, model group, and CLY treatment group (each group was injected with 5 mg/kg/d compound CLY-1, CLY-2, or CLY-8 intravenously) according to the number of body weight, with 6 mice in each group. One week before transplantation, BALB/c mice were fed sterile acidified water containing 200 mg/L gentamicin, and mice were given 8.5 Gy whole-body irradiation (cesium source) within 24 hours before transplantation. Model group and CLY-1 group, CLY-2 group, and CLY-8 group were injected with C57BL/6 mouse bone marrow nucleated cells (including cell 1×107) and spleen mononuclear cells (including cell 5×106) 0.5 mL of mixed solution was used to establish acute GVHD model in mice, and 0.5 mL of normal saline was infused into the tail vein of BABL/c mice in the control group. CLY-1 group, CLY-2 group, and CLY-8 group were injected with CLY compound solution of 5 mg/kg/d intravenously, and the other groups were injected with saline of 5 mg/kg/d.
1.3.1 GVHD symptom score of mice: observed the general conditions of mice every day after transplantation, including body mass, fur, posture, activity, diarrhea, and mental state, and determined whether the mice had acute GVHD. According to the clinical GVHD symptom scoring standard, the clinical GVHD symptoms of mice in each group were scored 11 days after transplantation.
1.3.2 Analysis of mouse survival time: collected the survival data of mice in each group three weeks after transplantation, drew the survival curve by the Kaplan-Meier method, and compared the differences between the survival rates of mice in each group by Log-rank analysis method.
1.3.3 Histopathological examination: two weeks after transplantation, three mice with GVHD were taken from each group, and the back skin tissue, liver, and small intestine tissue were taken. 40 g/L paraformaldehyde was fixed, paraffin was fixed and embedded, hematoxylin-eosin staining was performed, and the pathological changes of each tissue were observed under the light microscope.

`CN1CCC[C@@H](N(C(=O)c2ccc(-n3nnc4cccnc43)cc2)c2ncccc2Cl)C1` [CLY-1, (R)-4-(3H-[1,2,3]triazolo[4,5-b]pyridin-3-yl)-N-(3-chloropyridin-2-yl)-N-(1-methylpiperidin-3-yl)benzamide] was tested, and the “pathological changes of liver” value was “only small necrotic lesions”, the “clinical symptom score (GVHD)” value was 5.28±0.53 and the “survival rate of mice” value was 61.26%.

In the case of `CCN1CCC[C@@H](N(C(=O)c2ccc(-n3nnc4cccnc43)cc2)c2ncccc2Cl)C1` [CLY-2, (R)-4-(3H-[1,2,3]triazolo[4,5-b]pyridin-3-yl)-N-(3-chloropyridin-2-yl)-N-(1-ethylpiperidin-3-yl)benzamide], the “pathological changes of liver” value is reported as “only small necrotic lesions”, the “clinical symptom score (GVHD)” value is reported as 4.68±0.42 and the “survival rate of mice” value is reported as 58.79%.

For `O=C(c1ccc(-n2nnc3cccnc32)cc1)N(c1ncccc1Cl)[C@@H]1CCNC1` [CLY-8, (R)-4-(3H-[1,2,3]triazolo[4,5-b]pyridin-3-yl)-N-(3-chloropyridin-2-yl)-N-(pyrrolidin-3-yl)benzamide], the “pathological changes of liver” value was “only small necrotic lesions”, the “clinical symptom score (GVHD)” value was 4.56±0.39 and the “survival rate of mice” value was 63.48%.
